Like-named read-outs stand apart in the source and are kept apart here.
Experiments:
Pseudomonas fluorescens = system: Pseudomonas fluorescens
Procedure: (§1) Nutrient agar amended with Azocoll (a substrate made up of insoluble particles of collagen impregnated with a bright azo dye) was used as the test medium to study collagenase activity. The nutrient agar was prepared and autoclaved and then was cooled to 55° C. Azocol was added to give a final concentration of 0.5%. […] Using a sterile spatula or cork-borer, the middle portion of each plate of about the size of a United States quarter, was scooped out. Fresh nutrient agar-azocoll medium containing no inhibitor was added to replace the scooped out portion of the plate. […] The bacteria were grown overnight on nutrient agar. A suspension of each culture was made in sterile water and used to inoculate the middle portion of each plate. The treated samples were incubated at 30° C. and evaluated after 24 hours, 2 days and 7 days for collagenase activity and also for the growth of the bacteria. The test cultures secreted collagenase into the medium as they grew to degrade the collagen in the azocoll medium, and collagenase activity was determined by visual inspection of the clear zone around the bacteria. All % are by weight percent of the active ingredient.

Aeromonas salmonicida = system: Aeromonas salmonicida; parameters: key to the marks not given beside the values; conditions: for Growth/Days 1: day 1; for Growth/Days 2: day 2; for Growth/Days 7: day 7
Procedure: as §1

collagenase [1] = system: collagenase
collagenase [2] = conditions: for Collagenase Activity/Days 2: day 2; for Collagenase Activity/Days 7: day 7; for Collagenase Activity/Days 1: day 1
[3] = Conc. 1.8%, column day 1, footnote d: data collected on day 2
[4] = Conc. 1.8%, column day 2, footnote e: data collected on day 3

`O=C(O)C[C@H](NCCN[C@@H](CC(=O)O)C(=O)O)C(=O)O` [Na3EDDS, S,S′-ethylenediamine disuccinic acid] was tested, and the “Growth/Days 1” value (Pseudomonas fluorescens; Conc. 0.1%, day 1) was “++++”, the “Growth/Days 2” value (Pseudomonas fluorescens; Conc. 0.1%, day 2) was “++++” and the “Growth/Days 7” value (Pseudomonas fluorescens; Conc. 0.1%, day 7) was “++++”. The “Growth/Days 1” value (Pseudomonas fluorescens; Conc. 0.2%, day 1) was “++++”, the “Growth/Days 2” value (Pseudomonas fluorescens; Conc. 0.2%, day 2) was “++++” and the “Growth/Days 7” value (Pseudomonas fluorescens; Conc. 0.2%, day 7) was “++++”. The “Growth/Days 1” value (Pseudomonas fluorescens; Conc. 0.3%, day 1) was “++++”, the “Growth/Days 2” value (Pseudomonas fluorescens; Conc. 0.3%, day 2) was “++++” and the “Growth/Days 7” value (Pseudomonas fluorescens; Conc. 0.3%, day 7) was “++++”. The “Growth/Days 1” value (Pseudomonas fluorescens; Conc. 0.4%, day 1) was “++++”, the “Growth/Days 2” value (Pseudomonas fluorescens; Conc. 0.4%, day 2) was “++++” and the “Growth/Days 7” value (Pseudomonas fluorescens; Conc. 0.4%, day 7) was “++++”. The “Growth/Days 1” value (Pseudomonas fluorescens; Conc. 0.5%, day 1) was “++++”, the “Growth/Days 2” value (Pseudomonas fluorescens; Conc. 0.5%, day 2) was “++++” and the “Growth/Days 7” value (Pseudomonas fluorescens; Conc. 0.5%, day 7) was “++++”. For the same compound, the “Growth/Days 1” value (Pseudomonas fluorescens; Conc. 0.6%, day 1) was “++++”, the “Growth/Days 2” value (Pseudomonas fluorescens; Conc. 0.6%, day 2) was “++++” and the “Growth/Days 7” value (Pseudomonas fluorescens; Conc. 0.6%, day 7) was “++++”. For the same compound, the “Growth/Days 1” value (Pseudomonas fluorescens; Conc. 0.7%, day 1) was “++++”, the “Growth/Days 2” value (Pseudomonas fluorescens; Conc. 0.7%, day 2) was “++++” and the “Growth/Days 7” value (Pseudomonas fluorescens; Conc. 0.7%, day 7) was “++++”. For the same compound, the “Growth/Days 1” value (Pseudomonas fluorescens; Conc. 0.8%, day 1) was “++++”, the “Growth/Days 2” value (Pseudomonas fluorescens; Conc. 0.8%, day 2) was “++++” and the “Growth/Days 7” value (Pseudomonas fluorescens; Conc. 0.8%, day 7) was “++++”. The “Growth/Days 1” value (Pseudomonas fluorescens; Conc. 0.9%, day 1) was “++++”, the “Growth/Days 2” value (Pseudomonas fluorescens; Conc. 0.9%, day 2) was “++++” and the “Growth/Days 7” value (Pseudomonas fluorescens; Conc. 0.9%, day 7) was “++++”. The “Growth/Days 1” value (Pseudomonas fluorescens; Conc. 1%, day 1) was “++++”, the “Growth/Days 2” value (Pseudomonas fluorescens; Conc. 1%, day 2) was “++++” and the “Growth/Days 7” value (Pseudomonas fluorescens; Conc. 1%, day 7) was “++++”. For the same compound, the “Growth/Days 1” value (Pseudomonas fluorescens; Conc. 1.3%, day 1) was “++++”, the “Growth/Days 2” value (Pseudomonas fluorescens; Conc. 1.3%, day 2) was “++++” and the “Growth/Days 7” value (Pseudomonas fluorescens; Conc. 1.3%, day 7) was “++++”. For the same compound, the “Growth/Days 1” value (Pseudomonas fluorescens; Conc. 1.5%, day 1) was “++++”, the “Growth/Days 2” value (Pseudomonas fluorescens; Conc. 1.5%, day 2) was “++++” and the “Growth/Days 7” value (Pseudomonas fluorescens; Conc. 1.5%, day 7) was “++++”. The “Growth/Days 1” value (Pseudomonas fluorescens; [3]) was “++++^d”, the “Growth/Days 2” value (Pseudomonas fluorescens; [4]) was “++++^e” and the “Growth/Days 7” value (Pseudomonas fluorescens; Conc. 1.8%, day 7 (footnote f)) was “++++^f”. For the same compound, the “Growth/Days 1” value (Aeromonas salmonicida; Conc. 0.2%) was “++++”, the “Growth/Days 2” value (Aeromonas salmonicida; Conc. 0.2%) was “++++” and the “Growth/Days 7” value (Aeromonas salmonicida; Conc. 0.2%) was “++++”. The “Growth/Days 1” value (Aeromonas salmonicida; Conc. 0.5%) was “++++”, the “Growth/Days 2” value (Aeromonas salmonicida; Conc. 0.5%) was “++++” and the “Growth/Days 7” value (Aeromonas salmonicida; Conc. 0.5%) was “++++”. The “Growth/Days 1” value (Aeromonas salmonicida; Conc. 0.7%) was “++++”, the “Growth/Days 2” value (Aeromonas salmonicida; Conc. 0.7%) was “++++” and the “Growth/Days 7” value (Aeromonas salmonicida; Conc. 0.7%) was “++++”. The “Growth/Days 1” value (Aeromonas salmonicida; Conc. 1%) was “++++”, the “Growth/Days 2” value (Aeromonas salmonicida; Conc. 1%) was “++++” and the “Growth/Days 7” value (Aeromonas salmonicida; Conc. 1%) was “++++”. The “Growth/Days 1” value (Aeromonas salmonicida; Conc. 1.2%) was “++++”, the “Growth/Days 2” value (Aeromonas salmonicida; Conc. 1.2%) was “++++” and the “Growth/Days 7” value (Aeromonas salmonicida; Conc. 1.2%) was “++++”. For the same compound, the “Growth/Days 1” value (Aeromonas salmonicida; Conc. 1.3%) was “++++”, the “Growth/Days 2” value (Aeromonas salmonicida; Conc. 1.3%) was “++++” and the “Growth/Days 7” value (Aeromonas salmonicida; Conc. 1.3%) was “++++”. The “Growth/Days 1” value (Aeromonas salmonicida; Conc. 1.5%) was “++++”, the “Growth/Days 2” value (Aeromonas salmonicida; Conc. 1.5%) was “++++” and the “Growth/Days 7” value (Aeromonas salmonicida; Conc. 1.5%) was “++++”. For the same compound, the “Growth/Days 1” value (Aeromonas salmonicida; Conc. 1.8%) was “+++”, the “Growth/Days 2” value (Aeromonas salmonicida; Conc. 1.8%) was “++++” and the “Growth/Days 7” value (Aeromonas salmonicida; Conc. 1.8%) was “++++”. For the same compound, the “Growth/Days 1” value (Aeromonas salmonicida; Conc. 2%) was “++”, the “Growth/Days 2” value (Aeromonas salmonicida; Conc. 2%) was “+++” and the “Growth/Days 7” value (Aeromonas salmonicida; Conc. 2%) was “+++”. For the same compound, the “Collagenase Activity/Days 1” value (collagenase [1]; Conc. 0.1%, day 1) was “++++”, the “Collagenase Activity/Days 2” value (collagenase [1]; Conc. 0.1%, day 2) was “++++” and the “Collagenase Activity/Days 7” value (collagenase [1]; Conc. 0.1%, day 7) was “++++”. The “Collagenase Activity/Days 2” value (collagenase [1]; Conc. 0.2%, day 2) was “++++”, the “Collagenase Activity/Days 7” value (collagenase [1]; Conc. 0.2%, day 7) was “++++” and the “Collagenase Activity/Days 1” value (collagenase [1]; Conc. 0.3%, day 1) was 0. For the same compound, the “Collagenase Activity/Days 2” value (collagenase [1]; Conc. 0.3%, day 2) was “+++”, the “Collagenase Activity/Days 7” value (collagenase [1]; Conc. 0.3%, day 7) was “++++” and the “Collagenase Activity/Days 1” value (collagenase [1]; Conc. 0.4%, day 1) was 0. For the same compound, the “Collagenase Activity/Days 2” value (collagenase [1]; Conc. 0.4%, day 2) was “++”, the “Collagenase Activity/Days 7” value (collagenase [1]; Conc. 0.4%, day 7) was “++++” and the “Collagenase Activity/Days 1” value (collagenase [1]; Conc. 0.5%, day 1) was 0. For the same compound, the “Collagenase Activity/Days 7” value (collagenase [1]; Conc. 0.5%, day 7) was “++++”, the “Collagenase Activity/Days 1” value (collagenase [1]; Conc. 0.6%, day 1) was 0 and the “Collagenase Activity/Days 2” value (collagenase [1]; Conc. 0.6%, day 2) was 0. For the same compound, the “Collagenase Activity/Days 7” value (collagenase [1]; Conc. 0.6%, day 7) was “+”, the “Collagenase Activity/Days 1” value (collagenase [1]; Conc. 0.7%, day 1) was 0 and the “Collagenase Activity/Days 1” value (collagenase [1]; Conc. 0.8%, day 1) was 0. For the same compound, the “Collagenase Activity/Days 2” value (collagenase [1]; Conc. 0.8%, day 2) was 0, the “Collagenase Activity/Days 7” value (collagenase [1]; Conc. 0.8%, day 7) was 0 and the “Collagenase Activity/Days 1” value (collagenase [1]; Conc. 0.9%, day 1) was 0. The “Collagenase Activity/Days 2” value (collagenase [1]; Conc. 0.9%, day 2) was 0, the “Collagenase Activity/Days 7” value (collagenase [1]; Conc. 0.9%, day 7) was 0 and the “Collagenase Activity/Days 1” value (collagenase [1]; Conc. 1%, day 1) was 0. For the same compound, the “Collagenase Activity/Days 1” value (collagenase [1]; Conc. 1.3%, day 1) was 0, the “Collagenase Activity/Days 2” value (collagenase [1]; Conc. 1.3%, day 2) was 0 and the “Collagenase Activity/Days 1” value (collagenase [1]; Conc. 1.5%, day 1) was 0. For the same compound, the “Collagenase Activity/Days 2” value (collagenase [1]; Conc. 1.5%, day 2) was 0, the “Collagenase Activity/Days 7” value (collagenase [1]; Conc. 1.5%, day 7) was 0 and the “Collagenase Activity/Days 1” value (collagenase [1]; [3]) was 0^d. For the same compound, the “Collagenase Activity/Days 2” value (collagenase [1]; [4]) was 0^e, the “Collagenase Activity/Days 7” value (collagenase [1]; Conc. 1.8%, day 7 (footnote f)) was 0^f and the “performance as collagenase inhibitors (summary in words)” value (collagenase [1]; collagenase produced by the bacteria studied, Table 1) was “performed very well as collagenase inhibitors”. The “Collagenase Activity/Days 2” value (collagenase [2]; Conc. 0.2%) was “++++”, the “Collagenase Activity/Days 7” value (collagenase [2]; Conc. 0.2%) was “++++” and the “Collagenase Activity/Days 1” value (collagenase [2]; Conc. 0.5%) was 0. The “Collagenase Activity/Days 7” value (collagenase [2]; Conc. 0.5%) was “++++”, the “Collagenase Activity/Days 1” value (collagenase [2]; Conc. 0.7%) was 0 and the “Collagenase Activity/Days 1” value (collagenase [2]; Conc. 1%) was 0. The “Collagenase Activity/Days 1” value (collagenase [2]; Conc. 1.2%) was 0, the “Collagenase Activity/Days 2” value (collagenase [2]; Conc. 1.2%) was “+” and the “Collagenase Activity/Days 7” value (collagenase [2]; Conc. 1.2%) was “++++”. The “Collagenase Activity/Days 1” value (collagenase [2]; Conc. 1.3%) was 0, the “Collagenase Activity/Days 2” value (collagenase [2]; Conc. 1.3%) was 0 and the “Collagenase Activity/Days 1” value (collagenase [2]; Conc. 1.5%) was 0. For the same compound, the “Collagenase Activity/Days 2” value (collagenase [2]; Conc. 1.5%) was 0, the “Collagenase Activity/Days 7” value (collagenase [2]; Conc. 1.5%) was 0 and the “Collagenase Activity/Days 1” value (collagenase [2]; Conc. 1.8%) was 0. For the same compound, the “Collagenase Activity/Days 2” value (collagenase [2]; Conc. 1.8%) was 0, the “Collagenase Activity/Days 7” value (collagenase [2]; Conc. 1.8%) was 0 and the “Collagenase Activity/Days 1” value (collagenase [2]; Conc. 2%) was 0. For the same compound, the “Collagenase Activity/Days 2” value (collagenase [2]; Conc. 2%) was 0, the “Collagenase Activity/Days 7” value (collagenase [2]; Conc. 2%) was 0 and the “performance as collagenase inhibitors (summary in words)” value (collagenase [2]; collagenase produced by the bacteria studied, Table 2) was “performed very well as collagenase inhibitors”.
